Source: patent US8088761B2, “Enzyme inhibitors” (Cancer Research Technology Limited, priority 2005, dated 2012)

What was measured:
Aurora-B = Aurora-B (Homo sapiens, UniProt Q96GD4); test: Flashplate assay for Aurora-B inhibitors; type: biochemical; settings: read-out: IC50 against Aurora-B
Protocol: (§1) On this assay 384-well Basic Flashplate® (SMP400E, PerkinElmer) as solid assay platform was used. The plates were coated overnight at 4° C. with […] at 100 μg/ml in PBS buffer and used after being washed twice with PBS. 5 μl of compound in 2% DMSO was added to each well followed by 15 μl master mix of kinase buffer (50 mM Tris pH 7.5, 10 mM NaCl, 2.5 mM MgCl2, 1 mM […], 20 μM ATP, and 0.025 μCi/μl ^33P-ATP). Finally, 250 ng per well of Aurora-A enzyme was added. The plate was shaken for approximately 2 min on a flat-bed plate shaker (Wellmix, Denley, UK) and incubated for 2 hours at room temperature. The reaction was stopped by washing the plate twice on a 16-pin wash (ELX50 BioTek Instruments Ltd., Northstar, Bedford, UK) with 10 mM sodium pyrophosphate. The plate was then read on a TopCount-NX™ (PerkinElmer Life Sciences UK Ltd., Hounslow, UK).
(§2) Flashplate® Assay for Identification and Evaluation of Aurora-B and Aurora-C Inhibitors
(§3) For the determination of the inhibitory activity against Aurora-B or Aurora-C, the same conditions were followed in the assay using Aurora-B or Aurora-C enzymes.

Aurora-A [1] = biological target: T1, Aurora-A (Homo sapiens, UniProt O14965); test: Filterplate assay for Aurora-A inhibitors; type: biochemical; settings: read-out: IC50 against Aurora-A
T1 sequence (O14965 1-403): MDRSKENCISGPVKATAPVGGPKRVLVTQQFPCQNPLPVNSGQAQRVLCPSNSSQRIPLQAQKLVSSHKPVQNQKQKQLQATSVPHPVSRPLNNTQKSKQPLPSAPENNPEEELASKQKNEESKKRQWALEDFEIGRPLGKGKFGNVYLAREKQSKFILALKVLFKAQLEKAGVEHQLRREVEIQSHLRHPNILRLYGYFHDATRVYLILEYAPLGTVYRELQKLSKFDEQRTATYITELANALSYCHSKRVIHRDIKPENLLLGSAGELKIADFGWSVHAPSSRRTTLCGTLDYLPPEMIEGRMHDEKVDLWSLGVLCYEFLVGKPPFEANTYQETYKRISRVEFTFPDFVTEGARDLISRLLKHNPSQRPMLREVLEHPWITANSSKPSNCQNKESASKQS
Protocol: Filterplate Assay for Identification and Evaluation of Aurora-A Inhibitors
40 μl master mix of kinase buffer (50 mM Tris pH 7.5, 10 mM NaCl, 2.5 mM MgCL2, 1 mM DTT, 20 μM ATP, 0.025 μCi/μl ^33P-ATP, and 100 μg/ml MBP was added to a 96-well plate followed by addition of 250 ng of Aurora-A enzyme per well. The plate was shaken for approximately 2 min on a flat-bed plate shaker (Wellmix, Denley, UK) and incubated for 2 hours at room temperature. The reaction was stopped by the addition of 30 μl of 2% orthophosphoric acid. The reaction mixture was then transferred and filtered on the 96-well Multi-Screening Filter Plate (MATAH0P00, MILLIPORE), pre-treated with 50 μl per well of 0.5% orthophosphoric acid. The plate was washed twice with 200 μl of 0.5% orthophosphoric acid and vacuum-dried. 25 μl of scintillant (Microscint™20, PerkinElmer) per well was added and the plate was shaken for 10 min. Finally, the plate was re-sealed with TopSealA and the signal from the filter-bound component was read on TopCount-NXT™ (PerkinElmer Life Sciences UK Ltd., Hounslow, UK).

Aurora-A [2] = biological target: T1, Aurora-A; test: Flashplate Aurora A enzyme inhibition assay; type: biochemical; settings: Flashplate assay; IC50 range; read-out: Aurora-A inhibition
Method in brief: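 This is a radiometric Flashplate format: plates were precoated with DTT, and compound (in 2% DMSO) was mixed with kinase buffer (pH 7.5 Tris, MgCl2, NaCl) containing 1 mM MBP, 20 μM ATP and ^33P-ATP. The reaction was started with 250 ng Aurora-A per well and incubated 2 h at RT. It was then stopped by 10 mM sodium pyrophosphate washing, and plates were scintillation-counted.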

HCT116 cells = test: Cell viability assay (MTT) in HCT116 cell line; type: cell-based; settings: Homo sapiens, HCT-116, 72 hrs, IC50 range, read-out: HCT116 cell growth inhibition
Method in brief: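 MTT read-out (4 hrs, 37 °C, DMSO extraction) following 72 hrs of treatment with 0-50 μM Aurora inhibitor. HCT116 cells were plated a day earlier and tested in triplicate; IC50 derived from the curve.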

Aurora-C = biological target: T2, Aurora-C (Homo sapiens, UniProt Q9UQB9); test: Flashplate assay for Aurora-C inhibitors; type: biochemical; settings: read-out: IC50 against Aurora-C
T2 sequence (Q9UQB9 1-309): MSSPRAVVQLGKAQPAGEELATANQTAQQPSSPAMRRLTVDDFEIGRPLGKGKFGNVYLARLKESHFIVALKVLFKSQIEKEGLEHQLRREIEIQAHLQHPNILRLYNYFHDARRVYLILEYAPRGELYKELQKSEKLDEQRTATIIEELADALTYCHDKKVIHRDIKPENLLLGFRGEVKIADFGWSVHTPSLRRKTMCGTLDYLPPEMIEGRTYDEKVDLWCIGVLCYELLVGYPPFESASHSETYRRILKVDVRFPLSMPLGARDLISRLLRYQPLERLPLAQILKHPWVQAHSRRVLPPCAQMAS
Protocol: as §1, §2, §3

Sequence of Aurora-B (Q96GD4 whole entry): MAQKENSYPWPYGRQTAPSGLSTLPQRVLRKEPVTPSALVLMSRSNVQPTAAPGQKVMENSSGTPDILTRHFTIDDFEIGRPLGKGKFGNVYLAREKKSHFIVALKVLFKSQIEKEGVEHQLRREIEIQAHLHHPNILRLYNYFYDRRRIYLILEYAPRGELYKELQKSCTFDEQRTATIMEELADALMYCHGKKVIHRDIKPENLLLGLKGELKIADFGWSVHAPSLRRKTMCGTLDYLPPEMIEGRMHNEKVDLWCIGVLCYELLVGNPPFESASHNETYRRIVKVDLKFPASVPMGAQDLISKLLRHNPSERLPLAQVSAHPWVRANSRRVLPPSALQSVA

IC50 (Aurora-B): 0.41 µM | IC50 (Aurora-A [1]): 0.07 µM | IC50 (Aurora-A [2]): < 0.5 µM | IC50 (HCT116 cells): < 0.5 µM | IC50 (Aurora-C): 0.53 µM
Compound: CN(C)c1ccc(-c2nc3c(N4CCN(CC(=O)Nc5nccs5)CC4)c(Br)cnc3[nH]2)cc1 [Example 2, 2-{4-[6-Bromo-2-(4-dimethylamino-phenyl)-3H-imidazo[4,5-b]pyridin-7-yl]-piperazin-1-yl}-N-thiazol-2-yl-acetamide]
